Laboratory results reported in ChEMBL document CHEMBL1201862, “PubChem BioAssay data set” (2004).
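Cultured in 96-well plates, cells were exposed to test compound for 48 hours across five concentrations. GI50 = concentration required for 50% inhibition of growth.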 The source made the active and inactive calls. Cut-off read from the data, not from the text of the source: active = GI50 up to about 1.1 µM and inactive = higher.

Key:
Assay in all cases: NCI-60 cell line screen, 48 h
UACC-62 = system: UACC-62
M19-MEL = system: M19-MEL
RPMI-8226 = system: RPMI-8226
SN12C = system: SN12C
COLO 205 = system: COLO 205
HCT-116 = system: HCT-116
OVCAR-4 = system: OVCAR-4
OVCAR-8 = system: OVCAR-8
CCRF-CEM = system: CCRF-CEM
SNB-78 = system: SNB-78
786-0 = system: 786-0
MOLT-4 = system: MOLT-4
UO-31 = system: UO-31
LOX IMVI = system: LOX IMVI
K562 = system: K562
HL-60 = system: HL-60
LXFL 529 = system: LXFL 529
SNB-19 = system: SNB-19
UACC-257 = system: UACC-257
CAKI-1 = system: CAKI-1
HCC 2998 = system: HCC 2998
NCI-H460 = system: NCI-H460
ACHN = system: ACHN
HOP-92 = system: HOP-92
SK-OV-3 = system: SK-OV-3
SK-MEL-2 = system: SK-MEL-2
HCT-15 = system: HCT-15
M14 = system: M14
RXF 393 = system: RXF 393
U-251 = system: U-251
SK-MEL-5 = system: SK-MEL-5
SF-539 = system: SF-539
HT-29 = system: HT-29
Malme-3M = system: Malme-3M
TK-10 = system: TK-10
HOP-62 = system: HOP-62
OVCAR-3 = system: OVCAR-3
KM12 = system: KM12
OVCAR-5 = system: OVCAR-5
NCI-H522 = system: NCI-H522
SK-MEL-28 = system: SK-MEL-28
EKVX = system: EKVX
HOP-18 = system: HOP-18
DLD-1 = system: DLD-1
IGROV-1 = system: IGROV-1
NCI-H23 = system: NCI-H23
NCI-H226 = system: NCI-H226
A549 = system: A549
SF-268 = system: SF-268
SW-620 = system: SW-620
DMS-273 = system: DMS-273
SNB-75 = system: SNB-75
A498 = system: A498
KM-20L2 = system: KM-20L2
RXF 631 = system: RXF 631
SF-295 = system: SF-295
SR = system: SR
DMS-114 = system: DMS-114

In the case of `CC(=O)NNc1nc(C)c(C(=O)NNC(=O)C(=O)Nc2c(C)cccc2C)s1`, the GI50 (UACC-62) is reported as 33.3 µM (inactive), the GI50 (M19-MEL) is reported as 32.7 µM (inactive) and the GI50 (RPMI-8226) is reported as 26.2 µM (inactive). For the same compound, the GI50 (SN12C) was > 100 µM (inactive), the GI50 (COLO 205) was 31.8 µM (inactive) and the GI50 (HCT-116) was 40.9 µM (inactive). The GI50 (OVCAR-4) was 41.1 µM (inactive), the GI50 (OVCAR-8) was 26.2 µM (inactive) and the GI50 (CCRF-CEM) was 32 µM (inactive). For the same compound, the GI50 (SNB-78) was 36.1 µM (inactive), the GI50 (786-0) was 50.8 µM (inactive) and the GI50 (MOLT-4) was 22.6 µM (inactive). For the same compound, the GI50 (UO-31) was 53.8 µM (inactive), the GI50 (LOX IMVI) was 18.3 µM (inactive) and the GI50 (K562) was 34 µM (inactive). For the same compound, the GI50 (HL-60) was 25.9 µM (inactive), the GI50 (LXFL 529) was 41.8 µM (inactive) and the GI50 (SNB-19) was 61 µM (inactive). The GI50 (UACC-257) was 36.1 µM (inactive), the GI50 (CAKI-1) was 65.6 µM (inactive) and the GI50 (HCC 2998) was 95.9 µM (inactive). For the same compound, the GI50 (NCI-H460) was 33 µM (inactive), the GI50 (ACHN) was 37.6 µM (inactive) and the GI50 (HOP-92) was 40.4 µM (inactive). The GI50 (SK-OV-3) was > 100 µM (inactive), the GI50 (SK-MEL-2) was 48.9 µM (inactive) and the GI50 (HCT-15) was 32.3 µM. The GI50 (M14) was 54.1 µM (inactive), the GI50 (RXF 393) was 32.2 µM (inactive) and the GI50 (U-251) was 43.9 µM (inactive). The GI50 (SK-MEL-5) was 53 µM (inactive), the GI50 (SF-539) was 60.5 µM (inactive) and the GI50 (HT-29) was 36.6 µM (inactive). For the same compound, the GI50 (Malme-3M) was 53.1 µM (inactive), the GI50 (TK-10) was 77.1 µM (inactive) and the GI50 (HOP-62) was > 100 µM (inactive). For the same compound, the GI50 (OVCAR-3) was 26.4 µM (inactive), the GI50 (KM12) was 35.1 µM (inactive) and the GI50 (OVCAR-5) was 81.3 µM (inactive). For the same compound, the GI50 (NCI-H522) was 16.1 µM (inactive), the GI50 (SK-MEL-28) was 76.6 µM (inactive) and the GI50 (EKVX) was 37 µM (inactive). For the same compound, the GI50 (HOP-18) was 29.2 µM (inactive), the GI50 (DLD-1) was 45.5 µM (inactive) and the GI50 (IGROV-1) was 46.1 µM (inactive). For the same compound, the GI50 (NCI-H23) was 24.7 µM (inactive), the GI50 (NCI-H226) was > 100 µM (inactive) and the GI50 (A549) was 42.4 µM (inactive). The GI50 (SF-268) was 33.2 µM (inactive), the GI50 (SW-620) was 42.9 µM (inactive) and the GI50 (DMS-273) was 31.8 µM (inactive). The GI50 (SNB-75) was 96.4 µM (inactive), the GI50 (A498) was > 100 µM (inactive) and the GI50 (KM-20L2) was 35.2 µM (inactive). For the same compound, the GI50 (RXF 631) was 26.2 µM (inactive) and the GI50 (SF-295) was 40.6 µM (inactive).
With `Cc1ccc(S(=O)(=O)N/N=C2\CCCCC23CCC(=O)NC3)cc1` (configuration not stated) the GI50 (SR) was > 100 µM (inactive), the GI50 (UACC-62) was > 100 µM (inactive) and the GI50 (M19-MEL) was > 100 µM (inactive). For the same compound, the GI50 (RPMI-8226) was > 100 µM (inactive), the GI50 (SN12C) was > 100 µM (inactive) and the GI50 (COLO 205) was > 100 µM (inactive). For the same compound, the GI50 (HCT-116) was > 100 µM (inactive), the GI50 (OVCAR-4) was > 100 µM (inactive) and the GI50 (OVCAR-8) was > 100 µM (inactive). The GI50 (CCRF-CEM) was > 100 µM (inactive), the GI50 (SNB-78) was > 100 µM (inactive) and the GI50 (786-0) was > 100 µM (inactive). The GI50 (MOLT-4) was > 100 µM (inactive), the GI50 (UO-31) was > 100 µM (inactive) and the GI50 (K562) was > 100 µM (inactive). The GI50 (HL-60) was > 100 µM (inactive), the GI50 (LXFL 529) was > 100 µM (inactive) and the GI50 (SNB-19) was > 100 µM (inactive). For the same compound, the GI50 (UACC-257) was > 100 µM (inactive), the GI50 (CAKI-1) was > 100 µM (inactive) and the GI50 (HCC 2998) was > 100 µM (inactive). The GI50 (NCI-H460) was > 100 µM (inactive), the GI50 (ACHN) was > 100 µM (inactive) and the GI50 (SK-OV-3) was > 100 µM (inactive). For the same compound, the GI50 (SK-MEL-2) was > 100 µM (inactive), the GI50 (HCT-15) was over 100 µM and the GI50 (M14) was > 100 µM (inactive). For the same compound, the GI50 (RXF 393) was > 100 µM (inactive), the GI50 (U-251) was > 100 µM (inactive) and the GI50 (SK-MEL-5) was > 100 µM (inactive). The GI50 (SF-539) was > 100 µM (inactive), the GI50 (Malme-3M) was > 100 µM (inactive) and the GI50 (TK-10) was > 100 µM (inactive). For the same compound, the GI50 (HOP-62) was > 100 µM (inactive), the GI50 (OVCAR-3) was > 100 µM (inactive) and the GI50 (KM12) was > 100 µM (inactive). The GI50 (NCI-H522) was > 100 µM (inactive), the GI50 (SK-MEL-28) was > 100 µM (inactive) and the GI50 (HOP-18) was > 100 µM (inactive). The GI50 (DLD-1) was > 100 µM (inactive), the GI50 (IGROV-1) was > 100 µM (inactive) and the GI50 (NCI-H226) was > 100 µM (inactive). The GI50 (A549) was > 100 µM (inactive), the GI50 (SF-268) was > 100 µM (inactive) and the GI50 (SW-620) was > 100 µM (inactive). The GI50 (DMS-273) was > 100 µM (inactive), the GI50 (SNB-75) was > 100 µM (inactive) and the GI50 (A498) was > 100 µM (inactive). For the same compound, the GI50 (KM-20L2) was > 100 µM (inactive), the GI50 (RXF 631) was > 100 µM (inactive) and the GI50 (DMS-114) was > 100 µM (inactive).
